Among the data in PubChem BioAssay (NCI) are TGI and GI50 values, retold here.

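Protocol summary: plate cells (96-well), add compound at 5 concentrations, incubate 48 h, interpolate endpoints linearly. GI50 marks 50% less growth. At the TGI there is no net growth.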 Some results are limits rather than exact numbers.

Common to all, as to assay: NCI tumour cell line growth inhibition, 48 h
Experiment [1] relates to COLO 205 colon.
For experiment [2], the system named is HCC-2998 colon.
The subject of experiment [3] is HS 578T breast.
For experiment [4], the system named is MCF7 breast.
For experiment [5], the system named is NCI-H23 lung.
The subject of experiment [6] is PC-3 prostate.
The subject of experiment [7] is SF-539 CNS.
The test system of experiment [8] is SK-OV-3 ovarian.
Experiment [9] relates to TK-10 renal.
In experiment [10] the test system is BT-549 breast.

`CC(=O)N=S(NC(=O)c1ccc(C)cc1)C(Cl)(Cl)Cl` (stereo unspecified): the TGI is 45.3 µM in [1]; 30.5 µM in experiment [2]; more than 100 µM in experiment [3]; more than 100 µM in [4]; 68.2 µM in experiment [5]; more than 100 µM in experiment [6]. In addition, the TGI in experiment [7], in experiment [8] and in experiment [9] was more than 100 µM each time.
`COc1ccc(C(=O)/C=C/c2ccc(OCCCCCCCCCCOc3ccc(/C=C/C(=O)c4ccc(OC)c(OC)c4)cc3)cc2)c(OC)c1`: the TGI in experiment [1], in experiment [2], in [3], in experiment [4], in [6] and in experiment [7] was more than 100 µM each time. Further, the TGI in [8] and in experiment [9] was more than 100 µM each time.
As for `Nc1cc2nc(-c3ccccc3)cn2cn1`, the TGI in [10], in [1], in [4], in experiment [5], in [6] and in experiment [7] was more than 100 µM throughout. Further, the TGI in experiment [8] and in [9] was more than 100 µM in each case.
As to `CN(C)CN1C(=O)/C(=N\n2c(-c3ccncc3)n[nH]c2=S)c2ccccc21`, the TGI in experiment [10], in experiment [1], in experiment [3], in [4], in experiment [5] and in experiment [6] was more than 100 µM in each case. The TGI in experiment [7] was 52.4 µM; in experiment [8], more than 100 µM; in experiment [9], more than 100 µM.
On to `O/N=C/[C@H]1COC2(CCCCC2)O1`, for which the TGI in [1], in experiment [3], in experiment [4], in experiment [5], in [6] and in [8] was more than 100 µM in each case. The compound further showed a TGI in [9] of more than 100 µM.
Turning to `Cc1ccc(S(=O)(=O)N2CCc3cc(O)c([N+](=O)[O-])cc32)cc1`, the TGI in experiment [10], in experiment [1], in [3], in experiment [4], in experiment [5] and in experiment [6] was more than 100 µM each time. Besides, the TGI in [7], in experiment [8] and in [9] was more than 100 µM in each case.
With `CCc1ccc(OCc2ccccc2C(=O)Nc2ccc3nc(C)cc(N)c3c2)cc1`, the GI50 is 0.24 µM in experiment [1]; 1.64 µM in experiment [2]; 1.79 µM in [3]; 1.52 µM in experiment [6]; 1.59 µM in experiment [7]; 1.64 µM in experiment [8]. Besides, the GI50 in experiment [9] was 1.68 µM. For the same compound, the TGI in [1] was determined as 0.692 µM; in experiment [2], 3.24 µM; in [3] it was 4.38 µM; in experiment [6] it was 2.93 µM; in [7], 3.04 µM; in experiment [8], 3 µM. In [9], the TGI amounted to 3.17 µM.
For the compound `C[C@@](Br)(C(=O)O)[C@H](Br)C(=O)O`, the TGI in experiment [10], in [1], in experiment [2], in [4], in [5] and in [6] was more than 100 µM in each case. Besides, the TGI in experiment [8] and in experiment [9] was more than 100 µM each time.
Take `COC(=O)c1ccc2cc(O)ccc2c1`: the TGI in experiment [10], in experiment [1], in experiment [2], in experiment [4], in experiment [5] and in [6] was more than 100 µM in each case. In addition, the TGI in [7], in experiment [8] and in experiment [9] was more than 100 µM in each case.
Turning to `CCC1(c2ccc(OC)c(OC)c2)CCN2C(=O)C(O)CC21` (stereo unspecified), the TGI in experiment [10], in experiment [1], in experiment [2], in experiment [4], in experiment [5] and in experiment [6] was more than 100 µM throughout. Also, the TGI in [8] and in [9] was more than 100 µM in each case.
For the compound `O=C(O)Cn1c[n+](NC(=O)Cc2ccccc2)cn1`, the TGI in experiment [10], in [1], in experiment [2], in [3], in experiment [4] and in experiment [5] was more than 10 µM throughout. For the same compound, the TGI in experiment [7], in experiment [8] and in experiment [9] was more than 10 µM throughout.
`COc1cccc(Nc2nc3c([nH]2)c(=O)n(C)c(=O)n3C)c1`: the TGI in [1], in experiment [2], in [4], in [5], in experiment [6] and in [8] was more than 10 µM throughout. In [9], this compound came in with a TGI of more than 10 µM.
With `O=C(/C=C/CC(O)(c1ccccc1)c1ccccc1)Nc1ccccc1Cl`, the TGI in [1], in experiment [2], in experiment [5], in experiment [8] and in experiment [9] was more than 100 µM throughout.
As to `CC(=O)OC1COC(N2c3ccccc3[C@@H]3CCc4c([nH]c5ccccc45)[C@@H]32)C(OC(C)=O)C1OC(C)=O` (mixture of isomers), the TGI in experiment [10], in [1], in experiment [2], in [3], in [5] and in [6] was more than 100 µM each time. For the same compound, the TGI in experiment [8] and in [9] was more than 100 µM in each case.
`Nn1nnc2ccccc21`: the TGI in experiment [10], in experiment [1], in [2], in experiment [4], in experiment [5] and in experiment [6] was more than 100 µM each time. The TGI in [8] and in experiment [9] was more than 100 µM in each case.
